Read-outs that look alike come from different tables or passages of the source.
How the values were obtained:
Format in all cases: cell-based
SARS-CoV-2 Delta variant [1] = test: Viral load reduction assay in EPSC-derived eSTB cells (qRT-PCR of supernatant viral copies); details: for IC50: read-out: IC50 for Delta variant in eSTBs
[2] = system: SARS-CoV-2 Omicron variant; test: as above; details: for IC50: read-out: IC50 for Omicron variant in eSTBs
SARS-CoV-2 Delta variant [3] = test: Viral load reduction assay in naïve-eSTB cells; details: compared with EPSC-eSTBs
[4] = system: SARS-CoV-2 Omicron variant; test: Viral load reduction assay in naïve-eSTB cells; details: compared with EPSC-eSTBs
[5] = Severe acute respiratory syndrome coronavirus 2, 48 h

In the case of `CC(C)C[C@H](NC(=O)OCc1ccccc1)C(=O)N[C@@H](CC1CCNC1=O)C(O)S(=O)(=O)O` (some centres unmarked) [GC376], the IC50 (SARS-CoV-2 Delta variant [1]) is reported as 25.5 ± 3.2 nM and the IC50 [2] is reported as 31.4 ± 4.1 nM.
With `CC(C)C[C@H](NC(=O)OCc1ccccc1)C(=O)N[C@@H](C[C@@H]1CCNC1=O)C(O)S(=O)(=O)[O-].[Na+]` (some centres unmarked) [GC376] the “Viral copy in the supernatant, Delta (FIG. 17B)” value (SARS-CoV-2 Delta variant [1]; EPSC-derived eSTB cells) was “dose-dependent inhibition”, the “Viral copy in the supernatant, Omicron (FIG. 17B)” value ([2]; EPSC-derived eSTB cells) was “dose-dependent inhibition” and the “IC50 against Delta variant in naïve-eSTBs” value (SARS-CoV-2 Delta variant [3]) was “similarly low”. For the same compound, the “IC50 against Omicron variant in naïve-eSTBs” value [4] was “similarly low”.
Work on `CCC(CC)COC(=O)[C@H](C)N[P@](=O)(OC[C@H]1O[C@@](C#N)(c2ccc3c(N)ncnn23)[C@H](O)[C@@H]1O)Oc1ccccc1` [remdesivir] yielded an IC50 (SARS-CoV-2 Delta variant [1]; [5]) of 5.5 ± 1.2 nM and an IC50 [2, 5] of 4.1 ± 1.5 nM.

From patent US20230393122A1 (priority 2022, published 2023)
